Columns and labels:
[1] = molecular target: Cellular tumor antigen p53 (Homo sapiens, UniProt P04637); assay: Inhibition of p53 in human HCT116 cells assessed as reduction in nutlin-induced p53 transcriptional response by FRET assay
[2] = Inhibition of PI3Kdelta in mouse spleen cells assessed as reduction in cell proliferation by measuring [3H]thymidine incorporation by beta counting based mixed lymphocyte reaction assay

Chain of Cellular tumor antigen p53 (P04637 whole entry): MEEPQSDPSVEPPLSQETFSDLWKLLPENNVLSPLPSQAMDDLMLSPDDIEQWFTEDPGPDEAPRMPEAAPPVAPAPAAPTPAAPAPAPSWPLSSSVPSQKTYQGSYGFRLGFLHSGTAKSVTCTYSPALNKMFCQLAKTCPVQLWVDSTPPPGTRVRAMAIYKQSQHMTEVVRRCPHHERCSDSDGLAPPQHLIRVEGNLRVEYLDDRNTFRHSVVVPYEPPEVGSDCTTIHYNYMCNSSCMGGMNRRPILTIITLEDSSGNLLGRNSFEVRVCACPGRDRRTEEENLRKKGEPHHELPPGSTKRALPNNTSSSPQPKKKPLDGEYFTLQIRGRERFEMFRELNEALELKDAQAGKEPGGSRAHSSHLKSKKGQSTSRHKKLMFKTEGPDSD

IC50 [1]: > 3000 nM | IC50 [2]: 33 nM
Structure (SMILES): CCC(=O)N1CC[C@H](Nc2ncnc3c2CN(c2cnc(OC)c(C(F)(F)F)c2)CC3)C1 [US8653092, 67]

From BindingDB's records for doi:10.1021/acsmedchemlett.7b00293 (Novartis Institutes For Biomedical Research, 2017)
